This note sets out measurements from patent US20040067960A1, “Heterocyclic substituted piperazines for the treatment of schizophrenia” (priority 2002, published 2004).

As usually defined, the melting point is the temperature of the solid-liquid transition. In general, Ki refers to a dissociation constant, usually derived from enzyme kinetics or from competition with a known ligand.

SMILES strings stand for the structures. Where a name gives a salt, the structure may show the parent alone.

One data set addresses T1, dopamine D2 receptor (Homo sapiens, UniProt P14416).
T1 construct: expressed in transfected cells; host or cells: CHO cells (CHO-hD2L)
The data set is described as follows: Dopamine D2 receptor binding ([3H]spiperone, CHO-hD2L membranes). To be noted: [3H]spiperone 0.4 nM. An excerpt:
(§1) The ability of the compounds of this invention to bind to the dopamine D2 and serotonin 2A (5HT2A) receptors can be determined using conventional radioligand receptor binding assays. All receptors can be heterologously expressed in cell lines and experiments conducted in membrane preparations from the cell lines using procedures outlined below. IC50 concentrations can be determined by nonlinear regression of concentration-dependent reduction in specific binding. The Cheng-Prussoff equation can be used to convert the IC50 to Ki concentrations.
Dopamine D2 Receptor Binding:
[^3H]Spiperone binding to a membrane preparation from CHO-hD2L cells is carried out in 250 μl of 50 mM Tris-HCl buffer containing 100 mM NaCl, 1 mM MgCl2 and 1% DMSO at pH 7.4. Duplicate samples containing (in order of addition) the test compounds, 0.4 nM [^3H]spiperone and approximately 12 μg protein are incubated for 120 minutes at room temperature. Bound radioligand is separated by rapid filtration under reduced pressure through Whatman GF/B glass fiber filters previously treated with 0.3% polyethyleneimine. Radioactivity retained on the filter is determined by liquid scintillation spectrophotometry.
The title compounds of Examples 1-6 were tested using the above assay, in which specific binding determined in the presence of 1 mM haloperidol was 95%.

Data set [1] concerns the target T2, serotonin 2A (5HT2A) receptor (Homo sapiens, UniProt P28223).
T2 construct: expressed in transfected cells; host or cells: Swiss cells (Swiss-h5HT2A)
Kind of data set: Serotonin 2A binding ([3H]ketanserin, Swiss-h5HT2A cell membranes). Particulars: [3H]ketanserin 1.0 nM.
From the text: as §1
[^3H] Ketanserin binding to Swiss-h5HT2A cell membranes can be carried out in 250 μl of 50 mM Tris-HCl buffer pH 7.4. Duplicate samples containing (in order of addition) test compounds, 1.0 nM [^3H]ketanserin, and approximately 75 μg protein are incubated for 120 minutes at room temperature. Bound radioligand is separated by rapid filtration under reduced pressure through Whatman GF/B glass fiber filters previously treated with 0.3% polyethyleneimine. Radioactivity retained on the filter is determined by liquid scintillation spectrophotometry.
The title compounds of Examples 1-6 were tested using the above assay, in which specific binding determined in the presence of 1 mM ketanserin was 90%.

The subject of data set [2] is d-amphetamine-stimulated locomotor activity in rats. The data set is described as follows: d-Amphetamine-stimulated locomotor activity (LMA). Format: in vivo, Sprague Dawley rat. Particulars: rat, oral, 30 min before d-amphetamine 1 mg/kg s.c., 2 h recording. As for the experimental part:
d-Amphetamine-Stimulated Locomotor Activity (LMA):
The LMA model is used to test novel compounds for efficacy as orally active dopaminergic (DA) antagonists. In this model, administration of d-amphetamine to rats induces a stimulation of locomotor activity, measured as centimeters traveled over a two-hour period. Compounds are administered prior to d-amphetamine, and their efficacy in decreasing the stimulated locomotion is assessed as a measure of DA antagonism.
Sprague Dawley (S-D) male rats were obtained from Harlan Laboratories, Indianapolis Ind. All rats weighed 130-150 g at the time of arrival and were housed in groups of 5 for at least 1 week prior to testing. Food and water were available ad lib. At the time of testing, rats weighed 150-200 g. Tests occurred between 9:00 AM and 4:00 PM. All rats were food deprived overnight prior to testing.
Locomotor activity testing in rats was performed using 16-Beam Digiscan Animal Activity Monitors (Accuscan Electronics, Columbus, Ohio). Each test chamber consisted of a Plexiglas box measuring 16×16 inches, placed within the monitor frame. The entire monitor/chamber assembly is further housed inside a stainless steel sound-attenuating chamber (SAC). The SAC is lighted, ventilated, and isolates the rat from room environment. Rats were tested one per chamber. Data is collected using Versamax software.
Each test consists of four treatment groups, vehicle and three doses of the test compound. Each treatment group is comprised of 8 animals. The test is performed in two sessions, with 4 groups of 4 rats in each treatment group tested in each session, and data from the two sessions, typically morning and afternoon of the same day, combined to give a total of 8 rats per group.
Rats were removed from the housing room and transported to the test room in transfer cages. […]
Data were collected as centimeters traveled during the 2 hour test period. The effect of the test compound was expressed as a percentage decrease (or increase) in stimulated locomotor activity relative to the activity observed in the vehicle-treated group. […]

T2 sequence (P28223 whole entry): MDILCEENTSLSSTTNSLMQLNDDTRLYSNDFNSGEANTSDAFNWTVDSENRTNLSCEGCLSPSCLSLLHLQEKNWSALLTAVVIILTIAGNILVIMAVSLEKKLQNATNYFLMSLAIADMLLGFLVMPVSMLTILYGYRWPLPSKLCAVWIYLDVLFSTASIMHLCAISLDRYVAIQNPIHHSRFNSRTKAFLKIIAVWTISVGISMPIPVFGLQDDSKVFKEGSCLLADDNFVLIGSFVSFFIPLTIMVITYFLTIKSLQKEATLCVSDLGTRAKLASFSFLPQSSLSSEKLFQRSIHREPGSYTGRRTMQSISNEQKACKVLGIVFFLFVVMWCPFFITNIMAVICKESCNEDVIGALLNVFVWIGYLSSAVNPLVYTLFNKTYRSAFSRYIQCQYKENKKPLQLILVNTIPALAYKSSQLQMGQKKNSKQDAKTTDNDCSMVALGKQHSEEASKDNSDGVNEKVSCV
T1 sequence (P14416 whole entry): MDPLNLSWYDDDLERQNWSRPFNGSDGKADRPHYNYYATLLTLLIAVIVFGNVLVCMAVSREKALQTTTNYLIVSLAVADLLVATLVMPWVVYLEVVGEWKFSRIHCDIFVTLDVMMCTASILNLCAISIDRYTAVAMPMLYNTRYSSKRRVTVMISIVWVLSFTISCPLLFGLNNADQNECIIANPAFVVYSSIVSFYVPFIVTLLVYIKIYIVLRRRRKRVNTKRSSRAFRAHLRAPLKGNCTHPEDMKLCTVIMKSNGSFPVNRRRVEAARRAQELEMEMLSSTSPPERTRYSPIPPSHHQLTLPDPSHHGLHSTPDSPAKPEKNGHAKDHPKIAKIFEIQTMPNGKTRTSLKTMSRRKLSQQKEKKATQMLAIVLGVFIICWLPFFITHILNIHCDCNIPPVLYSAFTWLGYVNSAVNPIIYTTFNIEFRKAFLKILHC

Consider `Cc1ccc(CCN2CCN(c3noc4ccccc34)CC2)c2c1C(C)(C)CC(=O)N2` [Example 24, 8-[2-(4-BENZO[D]ISOXAZOL-3-YL-PIPERAZIN-1-YL)-ETHYL]-4,4,5-TRIMETHYL-3,4-DIHYDRO-1H-QUINOLIN-2-ONE], for which the melting point is 170 °C.

`CC1(C)CC(=O)Nc2c(CCN3CCN(c4nsc5ccc(F)cc45)CC3)cc(F)cc21` [Example 16, 6-FLUORO-8-{2-[4-(5-FLUORO-BENZO[D]ISOTHIAZOL-3-YL)-PIPERAZIN-1-YL]-ETHYL}-4,4-DIMETHYL-3,4-DIHYDRO-1H-QUINOLIN-2-ONE] showed a melting point of 191 °C.

`CC1(C)CC(=O)Nc2c(CCN3CCN(c4nsc5ccccc45)CC3)cc(F)cc21` (as salt: hydrochloride) [Example 3, 8-[2-(4-1,2-BENZISOTHIAZOL-3-YL-PIPERAZIN-1-YL)-ETHYL]-6-FLUORO-4,4-DIMETHYL-3,4-DIHYDRO-1H-QUINOLIN-2-ONE] had a melting point of 298 °C.

The molecule `CC(=O)N1CCC(C)(C)c2c(C)ccc(CCN3CCN(c4nsc5ccccc45)CC3)c21` (as salt: HCl) [Example 21, 1-{8-[2-(4-BENZO[D]ISOTHIAZOL-3-YL-PIPERAZIN-1-YL)-ETHYL]-4,4,5-TRIMETHYL-3,4-DIHYDRO-2H-QUINOLIN-1-YL}-ETHANONE] displayed a melting point of 132 °C.

The molecule `CC(=O)N1CCC(C)(C)c2c(C)ccc(CCN3CCN(c4noc5ccccc45)CC3)c21` (as salt: HCl) [Example 26, 1-{8-[2-(4-BENZO[D]ISOXAZOL-3-YL-PIPERAZIN-1-YL)-ETHYL]-4,4,5-TRIMETHYL-3,4-DIHYDRO-2H-QUINOLIN-1-YL}-ETHANONE] had a melting point of 230 °C.

For `CC1(C)Cc2cccc(CCN3CCN(c4nsc5ccccc45)CC3)c2NC1=O` [Example 5, 8-[2-(4-1,2-BENZISOTHIAZOL-3-YL-PIPERAZIN-1-YL)-ETHYL]-3,3-DIMETHYL-3,4-DIHYDRO-1H-QUINOLIN-2-ONE], the melting point came to 95 °C. For the same molecule, the Ki at dopamine D2 receptor was 74.9 nM. The molecule also showed a Ki in data set [1] of 2.07 nM.

`O=C1CC(c2ccccc2)c2cccc(CCN3CCN(c4nsc5ccccc45)CC3)c2N1` (stereo not drawn) [Example 6, 8-[2-(4-1,2-BENZISOTHIAZOL-3-YL-PIPERAZIN-1-YL)-ETHYL]-4-PHENYL-3,4-DIHYDRO-1H-QUINOLIN-2-ONE] had a melting point of 227 °C. Also, the Ki at dopamine D2 receptor turned out to be 13.8 nM. The molecule also displayed a Ki in data set [1] of 0.04 nM.

Consider `CC1(C)CC(=O)Nc2c(CCN3CCN(c4n[s+]([O-])c5ccccc45)CC3)cc(F)cc21` (stereo not drawn) [Example 14, 6-Fluoro-4,4-dimethyl-8-{2-[4-(1−oxo-1H-1λ^4-benzo[d]isothiazol-3-yl)-piperazin-1-yl]-ethyl}-3,4-dihydro-1H-quinolin-2-one], for which the melting point is 235 °C.

`Cl.O=C1CCc2cccc(CCN3CCN(c4nsc5ccccc45)CC3)c2N1` showed a melting point of 251 °C.

Molecule `CN1C(=O)CC(C)(C)c2cccc(CCN3CCN(c4nsc5ccccc45)CC3)c21` [Example 2, 8-[2-(4-1,2-BENZISOTHIAZOL-3-YL-PIPERAZIN-1-YL)-ETHYL]-1,4,4-TRIMETHYL-3,4-DIHYDRO-1H-QUINOLIN-2-ONE] had a melting point of 261 °C. Besides, the affinity on dopamine D2 receptor corresponds to a Ki of 81.3 nM. The molecule also displayed a Ki in data set [1] of 0.18 nM.

`CC1(C)CC(=O)Nc2c(CCN3CCN(c4nsc5ccccc45)CC3)cc(F)cc21` [Example 3, 8-[2-(4-1,2-BENZISOTHIAZOL-3-YL-PIPERAZIN-1-YL)-ETHYL]-6-FLUORO-4,4-DIMETHYL-3,4-DIHYDRO-1H-QUINOLIN-2-ONE]: the “activity in reducing d-amphetamine-stimulated locomotor activity (significant decrease vs vehicle)” value in data set [2] is listed as “active”.

For `CC1(C)CC(=O)Nc2c(CCN3CCN(c4noc5ccccc45)CC3)cc(F)cc21` [Example 27, 8-[2-(4-BENZO[D]ISOXAZOL-3-YL-PIPERAZIN-1-YL)-ETHYL]-6-FLUORO-4,4-DIMETHYL-3,4-DIHYDRO-1H-QUINOLIN-2-ONE], the melting point was 230 °C.

Molecule `CC(=O)N1CCC(C)(C)c2cccc(CCCN3CCN(c4nsc5ccccc45)CC3)c21` (as salt: HCl) [Example 19, 1-{8-[3-(4-BENZO[D]ISOTHIAZOL-3-YL-PIPERAZIN-1-YL)-PROPYL]-4,4-DIMETHYL-3,4-DIHYDRO-2H-QUINOLIN-1-YL}-ETHANONE] yielded a melting point of 109 °C.

With `CC(=O)N1CCC(C)(C)c2cc(F)cc(CCN3CCN(c4noc5ccccc45)CC3)c21` (as salt: HCl) [Example 28, 1-{8-[2-(4-benzo[d]isoxazol-3-yl-piperazin-1-yl)-ethyl]-6-fluoro-4,4-dimethyl-3,4-dihydro-2H-quinolin-1-yl}-ethanone], the melting point was 112 °C.

In the case of `CC1(C)CC(=O)Nc2c(CCN3CCN(c4nsc5ccccc45)CC3)cccc21` [Example 1, 8-[2-(4-1,2-BENZISOTHIAZOL-3-YL-PIPERAZIN-1-YL)-ETHYL]-4,4-DIMETHYL-3,4-DIHYDRO-1H-QUINOLIN-2-ONE], in data set [2], the “activity in reducing d-amphetamine-stimulated locomotor activity (significant decrease vs vehicle)” value is on record as “active”.

Turning to `CC1(C)CC(=O)Nc2c(CCCN3CCN(c4nsc5ccccc45)CC3)cccc21` [Example 18, 8-[3-(4-BENZO[D]ISOTHIAZOL-3-YL-PIPERAZIN-1-YL)-PROPYL]-4,4-DIMETHYL-3,4-DIHYDRO-1H-QUINOLIN-2-ONE], the melting point amounted to 166 °C.

Molecule `Cc1ccc(CCN2CCN(c3nsc4ccccc34)CC2)c2c1C(C)(C)CC(=O)N2` [Example 20, 8-[2-(4-BENZO[D]ISOTHIAZOL-3-YL-PIPERAZIN-1-YL)-ETHYL]-4,4,5-TRIMETHYL-3,4-DIHYDRO-1H-QUINOLIN-2-ONE] registered a melting point of 129 °C.

For `Cc1ccc(CCN2CCN(c3noc4ccccc34)CC2)c2c1C(C)(C)CCN2` [Example 25, 8-[2-(4-BENZO[D]ISOXAZOL-3-YL-PIPERAZIN-1-YL)-ETHYL]-4,4,5-TRIMETHYL-1,2,3,4-TETRAHYDRO-QUINOLINE], the melting point came to 135 °C.

Turning to `CC(=O)N1CCC(C)(C)c2cc(F)cc(CCN3CCN(c4nsc5ccc(F)cc45)CC3)c21` (as salt: HCl), the melting point is 128 °C.

With `CC1(C)CC(=O)Nc2c(CCN3CCN(c4nsc5ccccc45)CC3)cccc21` (as salt: hydrochloride) [Example 1, 8-[2-(4-1,2-BENZISOTHIAZOL-3-YL-PIPERAZIN-1-YL)-ETHYL]-4,4-DIMETHYL-3,4-DIHYDRO-1H-QUINOLIN-2-ONE], the melting point was determined as 284 °C.

On to `Cc1cc(=O)[nH]c2c(CCN3CCN(c4nsc5ccccc45)CC3)cccc12` [Example 29, 8-[2-(4-BENZO[D]ISOTHIAZOL-3-YL-PIPERAZIN-1-YL)-ETHYL]-4-METHYL-1H-QUINOLIN-2-ONE], for which the “activity in reducing d-amphetamine-stimulated locomotor activity (significant decrease vs vehicle)” value in data set [2] is “active”.
